# Measurements from patent US7087635B2, “3-substituted oxindole β3 agonists” (Eli Lilly and Company, priority 2001, dated 2006).
# Molecular target: T1, human β3 adrenergic receptor (Homo sapiens, UniProt P13945)
# T1 construct: expressed in transfected cells; host or cells: DXB-11 Chinese hamster ovary (CHO) cell line, stably transfected, phd expression vector
# Assay: whole cell receptor coupled c-AMP assay (Emax relative to isoproterenol)
# Assay type: cell-based
# Conditions: % intrinsic activity relative to isoproterenol maximal response; transfected CHO cells
# Excerpt: The genes encoding the human β1-adrenergic receptor (Frielle et al., Proc. Natl. Acad. Sci., 84:7920–7924, 1987), the human β2-adrenergic receptor (Kobika el al., Proc. Natl. Acad. Sci., 84:46–50, 1987, Emorine et al., Proc. Natl. Acad. Sci., 84:6995–6999, 1987) and the human β3 adrenergic receptor (Granneman et al., Molecular Pharmacology, 44(2):264–70, 1993) are individually subcloned into a phd expression vector (Grinnell et al., Bio/Technology, 5:1189–1192, 1987) and transfected into the DXB-11 Chinese hamster ovary (CHO) cell line by calcium phosphate precipitation methodology. The stably transfected cells are grown to 95% confluency in 95% Dulbecco's modified Eagles Medium (DMEM), 5% fetal bovine serum and 0.01% proline. Media is removed and the cells are washed with phosphate buffered (pH 7.4) saline (without magnesium and calcium). Cells are then lifted using an enzyme free cell dissociation solution (Specialty Media, Lavallette, N.J.) and pelleted by centrifugation.
# Cells from each of the above cell lines are resuspended and added (20,000/well) to a 96-well plate. Cells are incubated at 37° C. with representative compounds of the invention for 20 minutes in buffer (Hank's balanced salt solution, 10 mM HEPES, 0.1% BSA, 1 mM L-ascorbic acid, 0.2% dimethyl sulfoxide, 1 mM 3-isobutyl-1-methylxanthine, pH 7.4). After halting the incubation with quench buffer (50 mM Na Acetate, 0.25% Triton X-100, pH 5.8), the c-AMP level is quantified by scintillation proximity assay (SPA) using a modification of the commercially available c-AMP kit (Amersham, Arlington Heights, Ill.) with rabbit anti-cAMP antibody (ICN Biomedicals, Aurora, Ohio) for the kit.
# Sigmoidal dose response curves, from the whole cell receptor coupled c-AMP assay are fit to a four parameter logistic equation using non linear regression: y=(a–d)/(1+(Dose/c)^b)+d where a and d are responses at zero and maximal dose, b is the slope factor and c is the EC50 as previously described (DeLean et al., Am. J. Physiol., 235, E97–E102, 1978). EC50 is assessed as the concentration producing 50% of the maximum response to each agonist.
# Isoproterenol is accepted in the art as a non-selective β3 agonist and is widely used as a comparator in evaluating the activity of compounds. See Trends in Pharm. Sci., 15:3, 1994. The % intrinsic activity (Emax) of representative compounds of the invention is assessed relative to isoproterenol by the compound's maximal response divided by the isoproterenol maximal response times 100.
# T1 sequence (P13945 whole entry): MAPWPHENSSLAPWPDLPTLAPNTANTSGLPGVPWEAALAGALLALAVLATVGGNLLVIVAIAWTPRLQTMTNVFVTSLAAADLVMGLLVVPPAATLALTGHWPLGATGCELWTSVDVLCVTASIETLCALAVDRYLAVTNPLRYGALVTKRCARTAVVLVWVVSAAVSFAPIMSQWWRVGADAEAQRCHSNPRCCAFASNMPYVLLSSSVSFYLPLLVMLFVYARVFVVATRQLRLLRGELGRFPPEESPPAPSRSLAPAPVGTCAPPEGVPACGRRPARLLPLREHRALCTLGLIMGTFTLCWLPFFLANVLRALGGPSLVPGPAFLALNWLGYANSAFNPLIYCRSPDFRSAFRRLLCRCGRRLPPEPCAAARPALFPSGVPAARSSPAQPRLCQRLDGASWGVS
row,Emax [%],Compound
1,59.5,CC(C)(Cc1c[nH]c2c(C(=O)O)cccc12)NC[C@H](O)COc1cccc2c1C1(CCCC1)C(=O)N2 [Example 71]
2,82.4,CC(C)(Cc1c[nH]c2c(Oc3ccc(C(=O)O)cn3)cccc12)NC[C@H](O)COc1cccc2c1C1(CCCC1)C(=O)N2 [Example 73]
3,37.9,CC(C)(Cc1c[nH]c2cccc(C(=O)O)c12)NC[C@H](O)COc1cccc2c1C1(CCCC1)C(=O)N2 [Example 69]
4,77.2,CC(C)(Cc1c[nH]c2c(CCC(=O)O)cccc12)NC[C@H](O)COc1cccc2c1C1(CCCC1)C(=O)N2 [Example 80]
5,53.5,CC(C)(Cc1c[nH]c2ccc(C(=O)O)cc12)NC[C@H](O)COc1cccc2c1C1(CCCC1)C(=O)N2 [Example 70]
6,56.2,CC(C)(Cc1c[nH]c2cc(C(=O)O)ccc12)NC[C@H](O)COc1cccc2c1C1(CCCC1)C(=O)N2 [Example 72]
7,48.3,CC(C)(Cc1c[nH]c2cccc(C(N)=O)c12)NC[C@H](O)COc1cccc2c1C1(CCCC1)C(=O)N2 [Example 85]
8,75.1,CC(C)(Cc1c[nH]c2c(-c3ccc(C(=O)O)s3)cccc12)NC[C@H](O)COc1cccc2c1C1(CCCC1)C(=O)N2 [Example 79]
9,78.5,CC(C)(Cc1c[nH]c2c(CCc3ccc(S(N)(=O)=O)cc3)cccc12)NC[C@H](O)COc1cccc2c1C1(CCCC1)C(=O)N2 [Example 84]
10,78.1,CC(C)(Cc1c[nH]c2c(Oc3ccc(-c4nn[nH]n4)cn3)cccc12)NC[C@H](O)COc1cccc2c1C1(CCCC1)C(=O)N2 [Example 74]
11,84.9,CC(C)(Cc1c[nH]c2c(OCC3=NCCS3)cccc12)NC[C@H](O)COc1cccc2c1C1(CCCC1)C(=O)N2 [Example 66]
12,73.3,C[C@H](Cn1ccc2c(OCC(=O)O)cccc21)NC[C@H](O)COc1cccc2c1C1(CCCC1)C(=O)N2 [Example 68]
13,80.1,CC(C)(Cc1c[nH]c2c(Oc3ccc(C(N)=O)cn3)cccc12)NC[C@H](O)COc1cccc2c1C1(CCCC1)C(=O)N2 [Example 75]
14,72.7,CC(C)(Cc1c[nH]c2cc(CCc3nnn[nH]3)ccc12)NC[C@H](O)COc1cccc2c1C1(CCCC1)C(=O)N2 [Example 82]
15,80.1,CC(C)(Cc1c[nH]c2c(Oc3ncccc3-c3nn[nH]n3)cccc12)NC[C@H](O)COc1cccc2c1C1(CCCC1)C(=O)N2 [Example 76]
16,77.4,CC(C)(Cc1c[nH]c2c(CCc3nnn[nH]3)cccc12)NC[C@H](O)COc1cccc2c1C1(CCCC1)C(=O)N2 [Example 81]
17,93.5,CC(C)(Cc1c[nH]c2c(-c3cccc(C(=O)O)c3)cccc12)NC[C@H](O)COc1cccc2c1C1(CCCC1)C(=O)N2 [Example 78]
18,79.3,CC(C)(Cc1c[nH]c2c(CCc3cnccn3)cccc12)NC[C@H](O)COc1cccc2c1C1(CCCC1)C(=O)N2 [Example 83]
